According to ChEMBL document CHEMBL1131701, “Synthesis and evaluation of potent and selective c-GMP phosphodiesterase inhibitors” (Bioorg Med Chem Lett, 1999):

Experiments:
Phosphodiesterase 3 [1] = biological target: T1, Phosphodiesterase 3 (Homo sapiens, UniProt Q14432+Q13370); assay: Optimum inhibitory concentration required to inhibit […] (PDE3); format: protein assay
[2] = biological target: T2, cGMP-specific 3',5'-cyclic phosphodiesterase (Bos taurus, UniProt Q28156); assay: Optimum inhibitory concentration required to inhibit c-GMP specific Phosphodiesterase 5 (PDE5) of bovine lung
[3] = biological target: Dual specificity calcium/calmodulin-dependent 3',5'-cyclic nucleotide phosphodiesterase 1A (Bos taurus, UniProt P14100); assay: Optimum inhibitory concentration required to inhibit c-GMP specific phosphodiesterase 1 (PDE1) of bovine aorta
Phosphodiesterase 3 [4] = biological target: T1, Phosphodiesterase 3; assay: Inhibition of cGMP-inhibited phosphodiesterase 3 (PDE3); format: protein assay
[5] = biological target: T2, cGMP-specific 3',5'-cyclic phosphodiesterase; assay: Inhibition of c-GMP specific phosphodiesterase PDE5 of bovine lung

Chain of Dual specificity calcium/calmodulin-dependent 3',5'-cyclic nucleotide phosphodiesterase 1A (P14100 whole entry): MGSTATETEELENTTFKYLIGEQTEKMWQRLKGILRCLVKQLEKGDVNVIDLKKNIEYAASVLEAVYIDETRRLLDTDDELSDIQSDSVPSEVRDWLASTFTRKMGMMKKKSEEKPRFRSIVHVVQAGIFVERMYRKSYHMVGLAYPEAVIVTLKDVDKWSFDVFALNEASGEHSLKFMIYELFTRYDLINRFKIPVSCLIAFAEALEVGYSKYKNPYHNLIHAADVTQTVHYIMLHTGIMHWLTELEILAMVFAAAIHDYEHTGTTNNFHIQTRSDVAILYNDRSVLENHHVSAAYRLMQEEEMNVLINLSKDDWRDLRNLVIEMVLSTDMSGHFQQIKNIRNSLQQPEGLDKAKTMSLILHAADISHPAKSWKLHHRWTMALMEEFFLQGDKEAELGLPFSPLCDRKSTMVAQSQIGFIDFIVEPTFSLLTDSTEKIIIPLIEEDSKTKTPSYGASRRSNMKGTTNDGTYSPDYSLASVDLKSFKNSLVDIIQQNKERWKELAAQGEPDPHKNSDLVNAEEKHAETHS

Structure (SMILES)	IC50 (Phosphodiesterase 3 [1])	IC50 [2]	IC50 [3]	IC50 (Phosphodiesterase 3 [4])	IC50 [5]
CCC(CC)c1nc2c([nH]1)N1C(=N[C@@H]3CCC[C@@H]31)N(C)C2=O	150000 nM	1400 nM	150 nM	–	–
CCCCCCCCc1nc2c([nH]1)N1C(=N[C@@H]3CCC[C@@H]31)N(C)C2=O	–	–	33 nM	10000 nM	14 nM
CCc1nc2c([nH]1)N1C(=N[C@@H]3CCC[C@@H]31)N(C)C2=O	150000 nM	1200 nM	295 nM	–	–
CCCCCCCc1nc2c([nH]1)N1C(=N[C@@H]3CCC[C@@H]31)N(C)C2=O	7000 nM	30 nM	160 nM	–	–
CCCCCc1nc2c([nH]1)N1C(=N[C@@H]3CCC[C@@H]31)N(C)C2=O	20000 nM	40 nM	31 nM	–	–
CCCCCCc1nc2c([nH]1)N1C(=N[C@@H]3CCC[C@@H]31)N(C)C2=O	12000 nM	–	36 nM	–	–
CCCCCCc1nc2c([nH]1)N1CC3(CCCC3)N=C1N(C)C2=O	15000 nM	11 nM	14 nM	–	–
CCCC(CCC)c1nc2c([nH]1)N1C(=N[C@@H]3CCC[C@@H]31)N(C)C2=O	80000 nM	150 nM	60 nM	–	–
Cc1nc2c([nH]1)C(=O)N(C)C1=N[C@@H]3CCC[C@@H]3N12	> 300000 nM	–	1250 nM	–	–

Next, values leading:

IC50 (Phosphodiesterase 3 [1])	IC50 [2]	IC50 [3]	IC50 (Phosphodiesterase 3 [4])	IC50 [5]	Structure (SMILES)
38000 nM	140 nM	110 nM	–	–	CCCCc1nc2c([nH]1)N1C(=N[C@@H]3CCC[C@@H]31)N(C)C2=O
65000 nM	6 nM	12 nM	–	–	CC(C)CCCc1nc2c([nH]1)N1C[C@@H](C(C)C)N=C1N(C)C2=O
18000 nM	5 nM	25 nM	–	–	CCCCCCc1nc2c([nH]1)N1C[C@@H](C(C)C)N=C1N(C)C2=O
40000 nM	22 nM	15 nM	–	–	CC(C)CCc1nc2c([nH]1)N1C[C@@H](C(C)C)N=C1N(C)C2=O
80000 nM	–	350 nM	–	–	CCCc1nc2c([nH]1)N1C(=N[C@@H]3CCC[C@@H]31)N(C)C2=O
35000 nM	10 nM	6 nM	–	–	CC(C)CCCc1nc2c([nH]1)N1C(=N[C@@H]3CCC[C@@H]31)N(C)C2=O
15000 nM	–	14 nM	–	–	CC(C)CCc1nc2c([nH]1)N1C(=N[C@@H]3CCC[C@@H]31)N(C)C2=O
28000 nM	8 nM	25 nM	–	–	CCCCCCc1nc2c([nH]1)N1CC(C)(C)N=C1N(C)C2=O
